{"source": "paper PMC11089204", "about": "(Frontiers in Pharmacology, 2024)", "key": {"[1]": {"target": "T1, human 5-HT2A receptor (Homo sapiens, UniProt P28223)", "T1 sequence (P28223 whole entry)": "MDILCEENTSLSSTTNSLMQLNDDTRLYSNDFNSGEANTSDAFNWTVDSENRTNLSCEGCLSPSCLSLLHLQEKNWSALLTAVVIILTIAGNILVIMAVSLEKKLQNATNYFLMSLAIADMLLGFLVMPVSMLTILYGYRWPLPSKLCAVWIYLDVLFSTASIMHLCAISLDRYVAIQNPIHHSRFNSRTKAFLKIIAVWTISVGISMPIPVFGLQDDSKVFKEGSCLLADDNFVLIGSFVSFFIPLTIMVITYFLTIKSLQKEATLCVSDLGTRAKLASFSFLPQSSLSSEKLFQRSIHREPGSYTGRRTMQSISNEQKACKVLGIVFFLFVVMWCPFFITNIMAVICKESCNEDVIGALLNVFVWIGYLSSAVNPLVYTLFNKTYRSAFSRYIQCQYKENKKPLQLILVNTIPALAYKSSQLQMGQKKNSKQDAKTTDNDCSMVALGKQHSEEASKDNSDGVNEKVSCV", "test": "Radioligand receptor binding, 5-HT2A", "set-up": "expressed in transfected cells; host or cells: HEK 293 membrane preparations", "details": "HEK 293 membranes, [3H]ketanserin; read-out: h5-HT2A Receptor binding Ki ± SD"}, "[2]": {"target": "T1, human 5-HT2A receptor", "test": "5-HT activation potency (IP1 accumulation), 5-HT2A", "type": "cell-based", "set-up": "expressed in transfected cells", "details": "NIH/3T3 cells, read-out: h5-HT2A Activation potency EC50 ± SD", "description": "(§1) NIH/3T3 cells stably expressing the human 5-HT1A, 5-HT2A, and 5-HT2B receptors were seeded at a density of 3,000 cells (5-HT1A and 5-HT2A) or 4,000 cells (5-HT2B) in 384-well plates using Opti-MEM medium from Gibco (ThermoFisher, Life Technologies, Zug, Switzerland). Subsequently, the test compounds were introduced, and the plates were incubated for 90 min at 37°C, followed by a 60 min incubation with Anti-IP1-Cryptate and IP1-d2 at room temperature. The formation of stimulated IP1 was quantified by homogeneous time-resolved fluorescence (HTRF) measurements using a BioTek Synergy H1 microplate reader (Agilent Technologies, Basel, Switzerland). The obtained raw data for receptor activation were subjected to normalization, wherein the baseline signal was set at 0%, and the maximum signal stimulated by 5-HT at the specific receptor was established as 100%."}, "[3]": {"target": "T2, recombinant MAO-B (Homo sapiens, UniProt P27338)", "T2 construct": "purchased Corning Life Sciences B.V", "T2 sequence (P27338 1-520)": "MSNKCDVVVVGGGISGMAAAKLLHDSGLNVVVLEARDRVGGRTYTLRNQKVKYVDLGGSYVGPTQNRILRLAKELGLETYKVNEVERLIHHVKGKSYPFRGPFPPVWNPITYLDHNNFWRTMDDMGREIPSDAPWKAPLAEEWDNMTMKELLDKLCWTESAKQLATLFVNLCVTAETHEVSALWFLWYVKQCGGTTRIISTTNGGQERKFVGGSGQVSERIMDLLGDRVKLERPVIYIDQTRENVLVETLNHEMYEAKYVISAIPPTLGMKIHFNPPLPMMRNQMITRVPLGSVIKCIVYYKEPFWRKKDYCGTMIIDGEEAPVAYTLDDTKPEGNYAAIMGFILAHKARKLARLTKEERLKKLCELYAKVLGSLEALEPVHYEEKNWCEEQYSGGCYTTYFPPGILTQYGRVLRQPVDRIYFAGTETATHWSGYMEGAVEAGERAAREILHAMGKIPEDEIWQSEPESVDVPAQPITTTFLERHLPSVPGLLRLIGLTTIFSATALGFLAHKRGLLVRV", "test": "Incubation with recombinant MAO-B enzymes", "type": "in vitro ADME", "details": "1,000 nM psilocin, rec. MAO-B", "description": "Corning UltraPool human liver microsomes (HLM) 150 (20 mg/mL), human intestinal microsomes (HIM) pool (10 mg/mL) as well as recombinant human CYP enzymes (with P450 oxidoreductase, OR) including CYP1A2+OR (0.5 nmol), CYP2B6+OR (0.5 nmol), CYP2C8+OR (1.0 nmol), CYP2C9*1+OR (1 nmol), CYP2C19+OR (0.5 nmol), CYP2D6*1+OR (0.5 nmol), CYP2E1+OR + cytochrome b5 (1 nmol), CYP3A4+OR + cytochrome b5 (0.5 nmol), MAO-A (5 mg/mL), MAO-B (5 mg/mL), and UGT1A10 (5 mg/mL) were purchased from Corning Life Sciences B.V (Amsterdam, Netherlands). All microsomes and recombinant enzyme solutions were aliquoted and stored at −80 °C until further use.\nThe MAO inhibition assay was based on the assay described in section 2.5.1 and performed identically if not otherwise stated."}, "[4]": {"test": "Pharmacokinetics and metabolites in mouse plasma after oral psilocybin", "type": "in vivo, C57BL/6J mice", "details": "for half-life / Cmax / Tmax: male, C57BL/6J, po, n = 5; for half-life: mouse, plasma, 3 mg/kg, read-out: elimination half-life t1/2 (mean ± SD) (converted); for Cmax: read-out: Cmax (mean ± SD); for Tmax: read-out: tmax (mean ± SD)", "description": "C57BL/6J adult male mice (Janvier, Le Genest-Saint-Isle, France) were maintained in littermate pairs in standard cages (containing sawdust, a sleeping chamber, tissue paper, and a wood stick) with water and pellet food available ad libitium. The colony room was on a reversed light-dark cycle (dark phase 07:00 to 19:00) with temperature at 22°C and humidity at 50–60%. A total of 10 mice were dosed orally with either 3 mg/kg bodyweight psilocybin (n = 5) or saline solution (n = 5). Dosing and blood sampling were conducted between 09:00 and 13:00. The mouse was placed in a plastic restrainer with the tail protruding through a hole in the end of the tube. The tail was immersed in warm water for 1 min for vasodilation and then a small incision was made on the lateral tail surface near the distal tip. 50 μL of blood was massaged gently into an EDTA-coated capillary blood tube (Mircovette, Sarstedt, Nümbrecht, Germany). The first (baseline) blood sample was collected directly before compound administration via oral gavage and the mouse was then returned to the home cage. Further blood samples were collected at 15, 30, 60, and 120 min post-treatment. Each sample was drawn from the same incision site, with mice maintained in the home cage in the intervening periods. The blood samples were stored on ice and centrifuged for 10 min at 780 × g and 4°C. Subsequently, the plasma was transferred into cryotubes (Protein LoBind, Eppendorf) and stored at −80 °C until analysis. All procedures were conducted under a permit for animal experimentation (ZH038/2022) issued by the Veterinary Office Zurich in accordance with the Animal Protection Act (1978) of Switzerland. The use of psilocybin was authorized by the Federal Office of Public Health (FOPH).\nPharmacokinetic parameters were calculated using Phoenix WinNonlin software (version 8.1.0, Certara, Princeton, USA). The elimination half-life (t1/2, min) was assessed as t1/2 = ln(2)/λ, while the elimination constant was calculated by linear regression in the terminal elimination phase. The maximal plasma concentration (Cmax, ng/mL) and the time to reach this concentration (tmax, h) were direct read-outs of the graphical plots."}, "[5]": {"target": "T3, human 5-HT2C receptor (Homo sapiens, UniProt P28335)", "T3 construct": "expressed in transfected cells; host or cells: HEK 293 membrane preparations", "T3 sequence (P28335 33-458)": "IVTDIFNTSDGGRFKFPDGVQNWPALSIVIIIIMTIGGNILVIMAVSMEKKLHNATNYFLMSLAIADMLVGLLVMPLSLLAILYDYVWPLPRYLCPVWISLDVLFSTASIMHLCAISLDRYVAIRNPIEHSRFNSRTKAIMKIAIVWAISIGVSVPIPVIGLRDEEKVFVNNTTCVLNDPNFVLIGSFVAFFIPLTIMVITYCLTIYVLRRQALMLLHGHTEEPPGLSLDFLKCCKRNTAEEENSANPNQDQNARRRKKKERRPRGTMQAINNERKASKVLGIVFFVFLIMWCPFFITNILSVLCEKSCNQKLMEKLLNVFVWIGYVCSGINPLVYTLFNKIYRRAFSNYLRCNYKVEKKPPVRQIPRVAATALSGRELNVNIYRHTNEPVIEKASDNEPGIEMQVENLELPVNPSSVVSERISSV", "test": "biochemical", "details": "HEK 293 membranes, [3H]mesulergine; read-out: h5-HT2C Receptor binding Ki ± SD"}, "[6]": {"target": "T4, human 5-HT2B receptor (Homo sapiens, UniProt P41595)", "T4 construct": "expressed in transfected cells; host or cells: NIH/3T3", "T4 sequence (P41595 whole entry)": "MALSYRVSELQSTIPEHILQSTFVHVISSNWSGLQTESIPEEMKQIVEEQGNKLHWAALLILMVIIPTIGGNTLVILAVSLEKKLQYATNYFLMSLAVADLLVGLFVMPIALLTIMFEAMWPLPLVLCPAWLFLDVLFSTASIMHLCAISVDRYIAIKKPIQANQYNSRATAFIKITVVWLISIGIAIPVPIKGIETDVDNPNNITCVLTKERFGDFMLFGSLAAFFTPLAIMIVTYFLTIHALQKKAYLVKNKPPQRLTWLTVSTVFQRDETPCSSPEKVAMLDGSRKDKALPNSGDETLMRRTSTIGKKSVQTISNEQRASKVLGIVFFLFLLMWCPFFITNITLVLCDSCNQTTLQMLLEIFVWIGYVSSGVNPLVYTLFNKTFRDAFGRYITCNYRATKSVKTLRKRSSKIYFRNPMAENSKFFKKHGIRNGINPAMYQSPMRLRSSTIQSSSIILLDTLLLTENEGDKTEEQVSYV", "test": "5-HT activation potency (IP1 accumulation), 5-HT2B", "type": "cell-based", "details": "NIH/3T3 cells, read-out: h5-HT2B Activation potency EC50 ± SD", "description": "as §1"}, "[7]": {"details": "cited from earlier work; for fraction of administered psilocybin dose excreted in urine: oral psilocybin, within 24 h (time not stated for 4-HIAA)"}, "[8]": {"details": "mouse plasma, 3 mg/kg psilocybin p.o."}, "[9]": {"details": "humans, ref Holze et al., 2022a"}, "[10]": {"details": "humans, single oral dose of 25 mg psilocybin, ref Kolaczynska et al., 2021, Holze et al., 2022a"}}, "data": [{"smiles": "O=C(O)Cc1c[nH]c2cccc(O)c12", "note": "[4-HIAA, 4-hydroxyindole-3-acetic acid]", "values": [{"measurement": "Ki", "setting": "[1]", "result": "> 10", "unit": "µM"}, {"measurement": "EC50", "setting": "[2]", "result": "> 10", "unit": "µM"}, {"measurement": "formation of metabolite from psilocin", "setting": "[3]", "result": "did not produce any"}, {"measurement": "half-life", "setting": "[4]; [8]", "result": "45 ± 6.6", "unit": "min"}, {"measurement": "Cmax", "setting": "[4]; [8]", "result": "84.9 ± 17.7", "unit": "ng/mL"}, {"measurement": "Tmax", "setting": "[4]; [8]", "result": "18 ± 6.6", "unit": "min"}, {"measurement": "concentrations relative to psilocin (lower)", "setting": "[4]; mouse plasma", "result": 2, "unit": "fold"}, {"measurement": "elimination half-life in mice relative to humans (shorter)", "setting": "[4]; mouse versus human", "result": "more than 2 fold"}, {"measurement": "Ki", "setting": "[5]", "result": "> 10", "unit": "µM"}, {"measurement": "EC50", "setting": "[6]", "result": "> 10", "unit": "µM"}, {"measurement": "fraction of administered psilocybin dose excreted in urine", "setting": "[7]; [9]", "result": "Around 33%"}, {"measurement": "maximal concentrations relative to psilocin (higher)", "setting": "[7]; humans, ref Holze et al., 2022a, Becker et al., 2022", "result": "4–5 fold"}]}, {"smiles": "CN(C)CCc1c[nH]c2cccc(O)c12", "note": "[psilocin, 4-hydroxy-N,N-dimethyltryptamine]", "values": [{"measurement": "change of psilocin concentration", "setting": "[3]", "result": "did not visibly decrease"}, {"measurement": "half-life", "setting": "[4]; [8]", "result": "54.6 ± 6.6", "unit": "min"}, {"measurement": "Cmax", "setting": "[4]; [8]", "result": "198 ± 28", "unit": "ng/mL"}, {"measurement": "Tmax", "setting": "[4]; [8]", "result": "18 ± 6.6", "unit": "min"}, {"measurement": "time of peak plasma concentration", "setting": "[7]; after oral administration, ref Griffiths et al., 2016, Johnson et al., 2017, Holze et al., 2022a", "result": "around 2 h"}, {"measurement": "plasma elimination half-life in humans", "setting": "[7]; humans, no reference given", "result": "approximately 2 h"}, {"measurement": "fraction of administered psilocybin dose excreted in urine", "setting": "[7]; [9]", "result": 1.5, "unit": "%"}, {"measurement": "elimination half-life (t1/2)", "setting": "[7]; [10]", "result": "120 to 180", "unit": "min"}, {"measurement": "psilocin plasma concentrations", "setting": "[7]; [10]", "result": "15 to 20", "unit": "ng/mL"}]}, {"smiles": "OCCc1c[nH]c2cccc(O)c12", "note": "[4-HTP, 4-hydroxytryptophol]", "values": [{"measurement": "Ki", "setting": "[1]", "result": "> 10", "unit": "µM"}, {"measurement": "EC50", "setting": "[2]", "result": "> 10", "unit": "µM"}, {"measurement": "formation of metabolite from psilocin", "setting": "[3]", "result": "did not produce any"}, {"measurement": "detection in mouse plasma", "setting": "[4]; 3 mg/kg psilocybin p.o.", "result": "could not be observed"}, {"measurement": "Ki", "setting": "[5]", "result": "> 10", "unit": "µM"}, {"measurement": "EC50", "setting": "[6]", "result": "> 10", "unit": "µM"}]}]}
